From patent publication EP4810052A2, “HCRHR2 SELECTIVE POLYPEPTIDES” (Gubra A/S, priority 2023, dated 2026)
Starred links: 1 amine or outer side, 2 acyl side, 3 side chain; linkers in the order of their positions; H or OH if unused. Non-standard residues stand in square brackets, D forms with d. Residues, ends and D or L forms follow the SMILES beside them. Groups on a side chain read outwards from the residue. *: point of attachment. C20 diacid = O=C(O)CCCCCCCCCCCCCCCCCCC(=O)*; γGlu = O=C(O)[C@H](CCC(=O)[*:2])N[*:1]; AEEA = NCCOCCOCC(=O)O; Aib = CC(C)(N)C(=O)O

Experiments:
[1] = Dynamic Light Scattering (DLS) of peptide oligomerisation/particle formation; format: physicochemical; details: average of three replica
Description: Samples were prepared by dissolving 800 nmol of each peptide in 400 µl 50 mM phosphate pH 8.0 to a concentration of 2000 µM (ca 10 mg/ml). After fully dissolution for 2 hours on a rocking table, samples were adjusted to pH 7.5 and filtrated through a 0.2 µm Whatman Anotop filter. Comparators were commercially available liraglutide drug product (Victoza®, Novo Nordisk) pH 8.2, and an aliquot of this drug product adjusted to pH 6.7. These samples were filtrated through a 0.02 µm Whatman Anotop filter.
Samples were pipetted as triplicate of 30 µl to an Aurora 384 well microtiter plate, which was centrifuged for 2 minutes at 2200 rpm and then sealed with a Thermo sealing tape 235307. DLS measurements were done in a Wyatt DynaPro platereader III with the following parameters:
The microtiter plate was incubated in a Grant-bio Thermo Shaker PHMP-4 at 40°C with 700 rpm continuous shaking before subsequent DLS measurements. Data analysis was done using Wyatt Dynamics software ver. 7.10.1.21.
Samples were prepared and measured as described in procedure. The hydrodynamic radii (Rh) and associated polydispersity (PD) resulting from cumulant analysis (assuming one species) are shown in the Table 8 as averages of three replica. T0 indicates the measurement at time zero after sample preparation; T5 indicates the measurements of five days of incubation as described above.

[2] = target: T1, hCRHR2 (Homo sapiens, UniProt Q13324); test: HTRF cAMP assay, determination of hCRHR2 potency (peptide libraries 5 conc., purified peptides 11 conc.); format: cell-based
T1 sequence (Q13324 1-411): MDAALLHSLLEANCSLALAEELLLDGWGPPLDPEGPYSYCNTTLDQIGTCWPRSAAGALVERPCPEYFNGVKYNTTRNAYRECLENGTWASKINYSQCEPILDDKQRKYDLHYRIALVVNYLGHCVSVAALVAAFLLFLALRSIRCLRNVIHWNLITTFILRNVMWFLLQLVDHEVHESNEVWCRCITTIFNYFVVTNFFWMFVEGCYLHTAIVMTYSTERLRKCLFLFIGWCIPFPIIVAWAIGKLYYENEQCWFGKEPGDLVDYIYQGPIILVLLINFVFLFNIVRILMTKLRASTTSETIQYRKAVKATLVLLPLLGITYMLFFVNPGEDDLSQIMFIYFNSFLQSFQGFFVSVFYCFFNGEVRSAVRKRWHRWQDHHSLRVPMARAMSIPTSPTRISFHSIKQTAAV
Outline: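 Agonist peptides are added to suspended, freshly thawed CHO-K1 cells that stably carry the human receptor. Intracellular cAMP competes with d2-cAMP for a cryptate-tagged antibody, lowering the FRET signal. A variable-slope sigmoid curve is fitted to obtain EC50.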

[3] = Chemical stability of purified peptides (RP-UHPLC main peak purity loss); format: physicochemical; details: pH 7.5, 40°C
Outline: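 Peptides at about 1.0 mg/ml in 50 mM phosphate buffer pH 7.5, or pH-adjusted for the pH series, were incubated at 40 °C for 14 and 28 days. Main-peak purity was taken as main-peak area over total area by RP-UHPLC (UV 215 nm, C8, 50 °C). Purity loss was calculated versus T0.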

[4] = PK in rats; format: in vivo; set-up: T½ / MRT: unit not given here; details: Rat
Description: Lean male Sprague Dawley rats (RJHan:SD) were obtained from JanVier (JanVier Labs, France) at 7 weeks of age. The animals were pair housed until randomization under a 12/12 h dark-light cycle, light off at 3 PM. Room temperature was controlled to 22°C ± 1°C, with 60 % ± 20% humidity.
Animals had ad libitum access to regular rodent chow (Altromin 1324, Brogaarden, Denmark) and tap water.
After 2 weeks of acclimatization, the animals were single housed and randomized into treatment groups (n = 3 per group) based on body weight on study day -3. On study day 1, animals were dosed 50 nmol/kg IV and SC in combination of two peptides. Plasma samples were collected for PK analysis at times 0.17, 1, 3, 6, 24, 30, 48, 72 and 96 hours post dosing. Plasma samples were analyzed using LC-MSMS and PK parameters were estimated by Non-Compartmental Analysis (NCA).

[5] = target: T2, hCRHR1 (Homo sapiens, UniProt P34998); test: HTRF cAMP assay, determination of hCRHR1 potency (peptide libraries 5 conc., purified peptides 11 conc.); format: cell-based; details: purified peptides; CHO-K1 cells stably expressing hCRHR1, cAMP HTRF; read-out: hCRHR1 EC50
T2 sequence (P34998 24-415): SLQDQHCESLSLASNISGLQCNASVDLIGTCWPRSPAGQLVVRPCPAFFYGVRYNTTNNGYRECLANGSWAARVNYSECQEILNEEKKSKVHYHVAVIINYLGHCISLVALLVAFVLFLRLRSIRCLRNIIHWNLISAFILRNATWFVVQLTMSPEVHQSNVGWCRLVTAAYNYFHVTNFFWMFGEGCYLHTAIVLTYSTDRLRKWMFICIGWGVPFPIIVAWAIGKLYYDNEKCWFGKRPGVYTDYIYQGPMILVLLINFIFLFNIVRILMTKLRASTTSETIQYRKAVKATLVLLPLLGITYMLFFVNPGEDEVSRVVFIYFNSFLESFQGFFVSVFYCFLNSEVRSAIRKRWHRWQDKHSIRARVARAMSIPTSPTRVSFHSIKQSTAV
Outline: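 CHO-K1 cells stably expressing human CRHR1, thawed from frozen stocks just before use, were stimulated in suspension with agonist peptides. cAMP was measured by HTRF competitive immunoassay (cryptate anti-cAMP antibody vs d2-cAMP).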

[6] = Thioflavin T fibril formation assay of purified peptides; format: physicochemical; details: pH 7.5, ThT assay
Outline: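 Compounds at 200 µM in 50 mM phosphate buffer at the stated pH values, or at 200 µM in semaglutide drug product adjusted to pH 7.4, with 4 µM ThT final. Fibrillation followed as ThT fluorescence (ex 450/em 480 nm) over 96 h at 40°C, with 5 min shaking at 700 rpm alternating with 5 min rest; triplicates.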

[7] = pH 7.5
Description: Solubility was tested in the following vehicles: 100 mM phosphate buffer facilitating a target pH of 6.5, 7.0, and 7.5. Samples were directly dissolved in Mini-UniPrep Syringeless Filter 0.45 µm unit (Whatman). For the desired concentration, such as a concentration of 4000 µM (approximately 20 mg/mL), 1600 nmol peptide was dissolved in 400 µL vehicle. Samples were incubated for at least 1 h at room temperature on a rocking table. The pH was measured and adjusted. Samples were left on the rocking table for an additional hour before a second pH measurement and adjustment. Visual inspection was performed and noted before the filter was pushed. The concentration of peptide in the filtrate was determined using CAD (Charged Aerosol Detection), double determination was done for each sample. The measured concentration was reported in µM. Furthermore, the pH of the filtrate was measured and reported. Peptides with a measured concentration within +/-20% of target concentration are considered fully soluble.
Compounds were dissolved to a nominal concentration of 4000 µM and analysed as described above. Samples with phenol contained 5.0 mg/ml phenol.

[8] = T0, time zero after sample preparation
[9] = T5, five days incubation at 40°C with continuous shaking

Molecule	PD (%) [1, 8]	Rh (nm) [1, 8]	PD (%) [1, 9]	Rh (nm) [1, 9]	Selectivity ratio (hCRHR1/ hCRHR2) ([2]; hCRHR1-EC50/hCRHR2-EC50)	EC50 ([2]; purified peptides, CHO-K1 cells stably expressing hCRHR2, cAMP HTRF, read-out: hCRHR2 EC50)	Chemical stability at pH 7.5 after 14 days at 40°C (% degradation) ([3]; 14 days, first value of cell)	Chemical stability at pH 7.5 after 28 days at 40°C (% degradation) ([3]; 28 days, second value of cell)	MRT [4]	T½ [4]	EC50 [5]	Fibrillation (pH 7.5) [6]	Solubility pH 7.5, target conc. =10 mg/mL (measured mg/mL) [7]
liraglutide	6.0%	2.5 nm	Multimodal	5.6 nm	–	–	–	–	–	–	–	–	–
Liraglutide pH 8.2	1.4%	2.1 nm	3.8%	2.1 nm	–	–	–	–	–	–	–	–	–
CC[C@H](C)[C@H](N)C(=O)N[C@H](C(=O)N[C@@H](CC(C)C)C(=O)N[C@@H](CO)C(=O)N[C@@H](CC(C)C)C(=O)N[C@@H](CC(=O)O)C(=O)N[C@H](C(=O)N1CCC[C@H]1C(=O)N[C@H](C(=O)NCC(=O)N[C@@H](CC(C)C)C(=O)N[C@@H](CC(C)C)C(=O)N[C@@H](CCC(N)=O)C(=O)N[C@H](C(=O)N[C@@H](CC(C)C)C(=O)N[C@@H](CC(C)C)C(=O)N[C@@H](CCC(=O)O)C(=O)N[C@@H](CCC(N)=O)C(=O)N[C@@H](C)C(=O)N[C@@H](CCCNC(=N)N)C(=O)N[C@@H](C)C(=O)N[C@@H](CCCNC(=N)N)C(=O)N[C@@H](C)C(=O)N[C@@H](C)C(=O)N[C@@H](CCCNC(=N)N)C(=O)N[C@@H](CCC(=O)O)C(=O)N[C@@H](CCC(N)=O)C(=O)N[C@@H](C)C(=O)N[C@@H](CCCCNC(=O)COCCOCCNC(=O)COCCOCCNC(=O)CC[C@H](NC(=O)CC[C@H](NC(=O)CCCCCCCCCCCCCCCCCCC(=O)O)C(=O)O)C(=O)O)C(=O)N[C@H](C(=O)N[C@@H](CC(N)=O)C(=O)NC(C)(C)C(=O)N[C@@H](CCC(=O)O)C(=O)N[C@H](C(=O)N[C@@H](CC(C)C)C(=O)N[C@@H](C)C(=O)N[C@@H](CCC(=O)O)C(=O)N[C@H](C(N)=O)C(C)C)[C@@H](C)CC)[C@@H](C)O)[C@@H](C)CC)[C@@H](C)CC)C(C)C)C(C)C [SEQ ID NO: 15] (H-IVLSLDVPIGLLQILLEQARARAAREQAK([AEEA-AEEA-γGlu-γGlu-C20 diacid])TN[Aib]EILAEV-NH2)	–	–	–	–	>2174	2.3 nM	-1.0%	-1.2%	8	7.7	> 5000 nM	No	9.8 mg/mL
